Where two headings read alike, the source gives them in different places.
Assays:
A549/ATCC = assay: NCI-60 cell line screen (SRB), A549/ATCC; assay type: cell-based, human
Experimental: (§1) Drug sensitivity data are provided as GI50s (concentrations required to inhibit growth by 50%). The first row of the text file identifies cell lines, separated by tabs. Subsequent rows contain compound number, compound name, and GI50 for each cell line, each separated by a tab. […] For a typical screening experiment, cells are inoculated into 96 well microtiter plates in 100 μL at plating densities ranging from 5,000 to 40,000 cells/well depending on the doubling time of individual cell lines. After cell inoculation, the microtiter plates are incubated at 37° C., 5% CO2, 95% air and 100% relative humidity for 24 h prior to addition of experimental drugs. After 24 h, two plates of each cell line are fixed in situ with TCA, to represent a measurement of the cell population for each cell line at the time of drug addition (Tz). Experimental drugs are solubilized in dimethyl sulfoxide at 400-fold the desired final maximum test concentration and stored frozen prior to use. At the time of drug addition, an aliquot of frozen concentrate is thawed and diluted to twice the desired final maximum test concentration with complete medium containing 50 μg/ml gentamicin. Additional four, 10-fold or one-half log serial dilutions are made to provide a total of five drug concentrations plus control. Aliquots of 100 μl of these different drug dilutions are added to the appropriate microtiter wells already containing 100 μl of medium, resulting in the required final drug concentrations. Following drug addition, the plates are incubated for an additional 48 h at 37° C., 5% CO2, 95% air, and 100% relative humidity. For adherent cells, the assay is terminated by the addition of cold TCA. Cells are fixed in situ by the gentle addition of 50 μl of cold 50% (w/v) TCA (final concentration, 10% TCA) and incubated for 60 minutes at 4° C. The supernatant is discarded, and the plates are washed five times with tap water and air dried. Sulforhodamine B (SRB) solution (100 μl) at 0.4% (w/v) in 1% acetic acid is added to each well, and plates are incubated for 10 minutes at room temperature. After staining, unbound dye is removed by washing five times with 1% acetic acid and the plates are air dried. Bound stain is subsequently solubilized with 10 mM trizma base, and the absorbance is read on an automated plate reader at a wavelength of 515 nm. For suspension cells, the methodology is the same except that the assay is terminated by fixing settled cells at the bottom of the wells by gently adding 50 μl of 80% TCA (final concentration, 16% TCA). Using the seven absorbance measurements [time zero, (Tz), control growth, (C), and test growth in the presence of drug at the five concentration levels (Ti)], the percentage growth is calculated at each of the drug concentrations levels. […]

NCI-H322M = assay: NCI-60 cell line screen (SRB), NCI-H322M; assay type: cell-based, human
Experimental: as §1

CCRF-CEM = assay: NCI-60 cell line screen (SRB), CCRF-CEM; assay type: cell-based, human
Experimental: as §1

SN12C = assay: NCI-60 cell line screen (SRB), SN12C; assay type: cell-based, human
Experimental: as §1

SK-MEL-5 = assay: NCI-60 cell line screen (SRB), SK-MEL-5; assay type: cell-based, human
Experimental: as §1

OVCAR-4 = assay: NCI-60 cell line screen (SRB), OVCAR-4; assay type: cell-based, human
Experimental: as §1

NCI-H23 = assay: NCI-60 cell line screen (SRB), NCI-H23; assay type: cell-based, human
Experimental: as §1

SNB-75 = assay: NCI-60 cell line screen (SRB), SNB-75; assay type: cell-based; details: Homo sapiens
Experimental: as §1, with “temperature.” for “temperature. After staining, unbound dye is removed by washing five times with 1% acetic acid and the plates are air dried. Bound stain is subsequently solubilized with 10 mM trizma base, and the absorbance is read on an automated plate reader at a wavelength of 515 nm. For suspension cells, the methodology is the same except that the assay is terminated by fixing settled cells at the bottom of the wells by gently adding 50 μl of 80% TCA (final concentration, 16% TCA). Using the seven absorbance measurements [time zero, (Tz), control growth, (C), and test growth in the presence of drug at the five concentration levels (Ti)], the percentage growth is calculated at each of the drug concentrations levels.”

[1] = system: Ovarian Cancer cell lines; assay: NCI-60 cell line screen, Ovarian Cancer panel average; assay type: cell-based, human; details: read-out: GI50 Average
Experimental: as §1

Renal Cancer cell lines = assay: NCI-60 cell line screen, Renal Cancer panel average; assay type: cell-based, human; details: read-out: GI50 Average
Experimental: as §1

NCI/ADR-RES = assay: NCI-60 cell line screen (SRB), NCI/ADR-RES; assay type: cell-based, human
Experimental: as §1

RPMI-8226 = assay: NCI-60 cell line screen (SRB), RPMI-8226; assay type: cell-based, human
Experimental: as §1

HCC-2998 = assay: NCI-60 cell line screen (SRB), HCC-2998; assay type: cell-based, human
Experimental: as §1

[2] = system: Non-Small Cell Lung Cancer cell lines; assay: NCI-60 cell line screen, Non-Small Cell Lung Cancer panel average; assay type: cell-based, human; details: read-out: GI50 Average
Experimental: as §1

NCI-H226 = assay: NCI-60 cell line screen (SRB), NCI-H226; assay type: cell-based, human
Experimental: as §1

SNB-19 = assay: NCI-60 cell line screen (SRB), SNB-19; assay type: cell-based, human
Experimental: as §1

HS 578T = assay: NCI-60 cell line screen (SRB), HS 578T; assay type: cell-based, human
Experimental: as §1

PC-3 = assay: NCI-60 cell line screen (SRB), PC-3; assay type: cell-based, human
Experimental: as §1

MOLT-4 = assay: NCI-60 cell line screen (SRB), MOLT-4; assay type: cell-based, human
Experimental: as §1

M14 = assay: NCI-60 cell line screen (SRB), M14; assay type: cell-based, human
Experimental: as §1

HCT-15 = assay: NCI-60 cell line screen (SRB), HCT-15; assay type: cell-based, human
Experimental: as §1

Leukemia cell lines = assay: NCI-60 cell line screen, Leukemia panel average; assay type: cell-based, human; details: read-out: GI50 Average
Experimental: as §1

BT-549 = assay: NCI-60 cell line screen (SRB), BT-549; assay type: cell-based, human
Experimental: as §1

786-0 = assay: NCI-60 cell line screen (SRB), 786-0; assay type: cell-based, human
Experimental: as §1

CC1(C)CC(NC(=O)[C@H](Cc2ccc(OCc3c(Cl)cccc3Cl)cc2)NC(=O)c2ccc(OCCC[Si](C)(C)C)cc2)CC(C)(C)N1 [GH1501, N^α-{4-[3-(trimethylsilyl)propoxy]-benzoyl}-N-(2,2,6,6-tetramethylpiperidin-4-yl)-[O-(2,6-dichlorobenzyl)-L-tyrosinamide]]
GI50 (A549/ATCC; Homo sapiens, A549, 48 h): 407 nM
GI50 (NCI-H322M; Homo sapiens, 48 h): 1740 nM
GI50 (CCRF-CEM; Homo sapiens, 48 h): 1200 nM
GI50 (SN12C; Homo sapiens, 48 h): 564 nM
GI50 (SK-MEL-5; Homo sapiens, SK-MEL-5, 48 h): 1720 nM
GI50 (OVCAR-4; Homo sapiens, OVCAR-4, 48 h): 1620 nM
GI50 (NCI-H23; Homo sapiens, NCI-H23, 48 h): 1650 nM
GI50 (SNB-75; SNB-75, 48 h): 1340 nM
GI50 ([1]; Homo sapiens): 1370 nM
GI50 (Renal Cancer cell lines; Homo sapiens): 1280 nM
GI50 (NCI/ADR-RES; Homo sapiens, 48 h): 1480 nM
GI50 (RPMI-8226; Homo sapiens, RPMI-8226, 48 h): 1320 nM
GI50 (HCC-2998; Homo sapiens, HCC 2998, 48 h): 1050 nM
GI50 ([2]; Homo sapiens): 1330 nM
GI50 (NCI-H226; Homo sapiens, NCI-H226, 48 h): 1770 nM
GI50 (SNB-19; Homo sapiens, SNB-19, 48 h): 1720 nM
GI50 (HS 578T; Homo sapiens, Hs-578T, 48 h): 1920 nM
GI50 (PC-3; Homo sapiens, PC-3, 48 h): 1320 nM
GI50 (MOLT-4; Homo sapiens, MOLT-4, 48 h): 353 nM
GI50 (M14; Homo sapiens, M14, 48 h): 341 nM
GI50 (HCT-15; Homo sapiens, HCT-15, 48 h): 357 nM
GI50 (Leukemia cell lines; Homo sapiens): 802 nM
GI50 (BT-549; Homo sapiens, BT-549, 48 h): 2010 nM
GI50 (786-0; Homo sapiens, 786-0, 48 h): 369 nM

CCCC[Si](C)(C)COc1ccc(C(=O)N[C@@H](Cc2ccc(OCc3c(Cl)cccc3Cl)cc2)C(=O)NC2CC(C)(C)NC(C)(C)C2)cc1 [GH1503, N^α-{4-[(butyldimethylsilyl)methoxy]-benzoyl}-N-(2,2,6,6-tetramethylpiperidin-4-yl)-[O-(2,6-dichlorobenzyl)-L-tyrosinamide]]
GI50 (A549/ATCC; Homo sapiens, Non-Small Cell Lung Cancer, A549/ATCC, 48 h drug incubation, read-out: GI50): 332 nM
GI50 (NCI-H322M; Homo sapiens, Non-Small Cell Lung Cancer, 48 h drug incubation, read-out: GI50): 1570 nM
GI50 (CCRF-CEM; Homo sapiens, Leukemia, 48 h drug incubation, read-out: GI50): 531 nM
GI50 (SN12C; Homo sapiens, Renal Cancer, 48 h drug incubation, read-out: GI50): 613 nM
GI50 (SK-MEL-5; Homo sapiens, Melanoma, SK-MEL-5, 48 h drug incubation, read-out: GI50): 1680 nM
GI50 (OVCAR-4; Homo sapiens, Ovarian Cancer, OVCAR-4, 48 h drug incubation, read-out: GI50): 711 nM
GI50 (NCI-H23; Homo sapiens, Non-Small Cell Lung Cancer, NCI-H23, 48 h drug incubation, read-out: GI50): 1560 nM
GI50 (SNB-75; CNS Cancer, SNB-75, 48 h drug incubation, read-out: GI50): 1350 nM
GI50 ([1]; Homo sapiens, average over Ovarian Cancer panel): 1050 nM
GI50 (Renal Cancer cell lines; Homo sapiens, average over Renal Cancer panel): 1050 nM
GI50 (NCI/ADR-RES; Homo sapiens, Ovarian Cancer, 48 h drug incubation, read-out: GI50): 1250 nM
GI50 (RPMI-8226; Homo sapiens, Leukemia, RPMI-8226, 48 h drug incubation, read-out: GI50): 893 nM
GI50 (HCC-2998; Homo sapiens, Colon Cancer, HCC-2998, 48 h drug incubation, read-out: GI50): 1070 nM
GI50 ([2]; Homo sapiens, average over Non-Small Cell Lung Cancer panel): 1210 nM
GI50 (NCI-H226; Homo sapiens, Non-Small Cell Lung Cancer, NCI-H226, 48 h drug incubation, read-out: GI50): 1340 nM
GI50 (SNB-19; Homo sapiens, CNS Cancer, SNB-19, 48 h drug incubation, read-out: GI50): 1600 nM
GI50 (HS 578T; Homo sapiens, Breast Cancer, HS 578T, 48 h drug incubation, read-out: GI50): 2010 nM
GI50 (PC-3; Homo sapiens, Prostate Cancer, PC-3, 48 h drug incubation, read-out: GI50): 490 nM
GI50 (MOLT-4; Homo sapiens, Leukemia, MOLT-4, 48 h drug incubation, read-out: GI50): 315 nM
GI50 (M14; Homo sapiens, Melanoma, M14, 48 h drug incubation, read-out: GI50): 334 nM
GI50 (HCT-15; Homo sapiens, Colon Cancer, HCT-15, 48 h drug incubation, read-out: GI50): 323 nM
GI50 (Leukemia cell lines; Homo sapiens, average over Leukemia panel): 572 nM
GI50 (BT-549; Homo sapiens, Breast Cancer, BT-549, 48 h drug incubation, read-out: GI50): 2110 nM
GI50 (786-0; Homo sapiens, Renal Cancer, 786-0, 48 h drug incubation, read-out: GI50): 468 nM

CCOP(=O)(OCC)C(NC(=O)[C@H](Cc1ccc(-c2ccccc2)cc1)NC(=O)c1ccc(OCCC[Si](C)(C)C)cc1)P(=O)(OCC)OCC [GH1505, N^α-{4-[3-(trimethylsilyl)propoxy]-benzoyl}-N-[bis(dietoxyphosphoryl)methyl]-(4-phenyl-L-phenylalaninamide)]
GI50 (A549/ATCC; Non-Small Cell Lung Cancer, A549/ATCC, 48 h drug incubation, read-out: GI50): 2840 nM
GI50 (NCI-H322M; Non-Small Cell Lung Cancer, 48 h drug incubation, read-out: GI50): 5110 nM
GI50 (CCRF-CEM; Leukemia, 48 h drug incubation, read-out: GI50): 2780 nM
GI50 (SN12C; Renal Cancer, 48 h drug incubation, read-out: GI50): 1710 nM
GI50 (SK-MEL-5; Melanoma, SK-MEL-5, 48 h drug incubation, read-out: GI50): 1580 nM
GI50 (OVCAR-4; Ovarian Cancer, OVCAR-4, 48 h drug incubation, read-out: GI50): 2540 nM
GI50 (NCI-H23; Non-Small Cell Lung Cancer, NCI-H23, 48 h drug incubation, read-out: GI50): 3050 nM
GI50 ([1]; average over Ovarian Cancer panel): 2600 nM
GI50 (Renal Cancer cell lines; average over Renal Cancer panel): 2550 nM
GI50 (NCI/ADR-RES; Ovarian Cancer, 48 h drug incubation, read-out: GI50): 3310 nM
GI50 (RPMI-8226; Leukemia, RPMI-8226, 48 h drug incubation, read-out: GI50): 1970 nM
GI50 (HCC-2998; Colon Cancer, HCC-2998, 48 h drug incubation, read-out: GI50): 2020 nM
GI50 ([2]; average over Non-Small Cell Lung Cancer panel): 2620 nM
GI50 (NCI-H226; Non-Small Cell Lung Cancer, NCI-H226, 48 h drug incubation, read-out: GI50): 1840 nM
GI50 (SNB-19; CNS Cancer, SNB-19, 48 h drug incubation, read-out: GI50): 2060 nM
GI50 (HS 578T; Breast Cancer, HS 578T, 48 h drug incubation, read-out: GI50): 2610 nM
GI50 (PC-3; Prostate Cancer, PC-3, 48 h drug incubation, read-out: GI50): 2100 nM
GI50 (MOLT-4; Leukemia, MOLT-4, 48 h drug incubation, read-out: GI50): 2860 nM
GI50 (M14; Melanoma, M14, 48 h drug incubation, read-out: GI50): 2100 nM
GI50 (HCT-15; Colon Cancer, HCT-15, 48 h drug incubation, read-out: GI50): 2250 nM
GI50 (Leukemia cell lines; average over Leukemia panel): 2800 nM
GI50 (BT-549; Breast Cancer, BT-549, 48 h drug incubation, read-out: GI50): 2090 nM
GI50 (786-0; Renal Cancer, 786-0, 48 h drug incubation, read-out: GI50): 2760 nM

From patent US9828393B2, “Silylalkyloxyaryl compounds and methods for treating cancer” (THE REGENTS OF THE UNIVERSITY OF COLORADO, a body corporate, priority 2013, dated 2017)
